This note sets out measurements from patent US20260355212A1 (priority 2022, published 2026).

Like-named read-outs stand apart in the source and are kept apart here.

This test addresses SARS-CoV-2 Mpro (Severe acute respiratory syndrome coronavirus 2, UniProt P0DTD1). The experiment in a line: SARS-CoV-2 Mpro enzymatic inhibition assay (fluorescence). The format is biochemical. The method, then: The hCoV Mpro are cloned, expressed in E. coli and purified by WuXi AppTec Co., Ltd. The substrate are synthesized by Genscript Biotech.
Compounds are 3 fold serially diluted for 10 doses and added to an assay plate (384w format) using ECHO, in duplicate wells. The test concentration of test compounds is defined by sponsor.
25 μL of Mpro proteins are added to the assay plates containing compounds, respectively, using Multidrop. The compounds and Mpro proteins are pre-incubated at room temperature for 30 min. Then 5 µL of Mpro substrates are added to the related assay plates, respectively.
After 60 min incubation at 30° C., the fluorescence signal (RFU) is detected using a microplate reader M2e (SpectraMax) at Ex/Em=340 nm/490 nm.
The inhibition activity is calculated using the formula below, IC50 values will be calculated using the Inhibition % data.
IC50 values of compounds are calculated with the GraphPad Prism software using the nonlinear regression model of log(inhibitor) vs. response—Variable slope (four parameters).

The molecule `COc1ccc2[nH]c(C(=O)N3C[C@H]4[C@@H]([C@H]3C(=O)N[C@H](C=O)C[C@@H]3CCNC3=O)C4(C)C)cc2c1` [Compound 68, (1R,2S,5S)-3-(5-Methoxy-1H-indole-2-carbonyl)-6,6-dimethyl-N—((S)-1-oxo-3-((S)-2-oxopyrrolidin-3-yl)propan-2-yl)-3-azabicyclo[3.1.0]hexane-2-carboxamide] gave an IC50 of 28 nM.
As to `O=C[C@H](C[C@@H]1CCNC1=O)NC(=O)[C@@H]1C[C@H](C2CCCCC2)CN1C(=O)c1cc2ccccc2[nH]1` [Compound 103, (2S,4R)-4-cyclohexyl-1-(1H-Indole-2-carbonyl)-N—((S)-1-oxo-3-((S)-2-oxopyrrolidin-3-yl)propan-2-yl)pyrrolidine-2-carboxamide], the IC50 was found to be 63.9 nM.
In the case of `CC1(C)[C@@H]2[C@@H](C(=O)N[C@@H](C[C@@H]3CCNC3=O)C(=O)C(=O)NC3CC3)N(C(=O)C3(c4cccc(Cl)c4)CC3)C[C@@H]21` [Compound 45, (1R,2S,5S)-3-(1-(3-Chlorophenyl)cyclopropanecarbonyl)-N—((S)-4-(cyclopropylamino)-3,4-dioxo-1-((S)-2-oxopyrrolidin-3-yl)butan-2-yl)-6,6-dimethyl-3-azabicyclo[3.1.0]hexane-2-carboxamide], the 50% inhibitory concentration (IC50) came out at 22.5 nM.
`CC1(C)[C@@H]2[C@@H](C(=O)N[C@@H](C[C@@H]3CCNC3=O)C(=O)C(=O)NC3CC3)N(C(=O)C3(c4ccccc4)CC3)C[C@@H]21` [Compound 119, (1R,2S,5S)—N—((S)-4-(cyclopropylamino)-3,4-dioxo-1-((S)-2-oxopyrrolidin-3-yl)butan-2-yl)-6,6-dimethyl-3-(1-phenylcyclopropanecarbonyl)-3-azabicyclo[3.1.0]hexane-2-carboxamide] registered an IC50 of 143 nM.
As for `CC(C)Oc1cccc2[nH]c(C(=O)N3C[C@H]4[C@@H]([C@H]3C(=O)N[C@H](C=O)C[C@@H]3CCNC3=O)C4(C)C)cc12` [Compound 66, (1R,2S,5S)-3-(4-Isopropoxy-1H-indole-2-carbonyl)-6,6-dimethyl-N—((S)-1-oxo-3-((S)-2-oxopyrrolidin-3-yl)propan-2-yl)-3-azabicyclo[3.1.0]hexane-2-carboxamide], half-maximal inhibition (IC50) required 27.6 nM.
`CC1(C)[C@@H]2[C@@H](C(=O)N[C@H](C=O)C[C@@H]3CCNC3=O)N(C(=O)c3cc4cc(Cl)cc(Cl)c4[nH]3)C[C@@H]21` [Compound 44, (1R,2S,5S)-3-(5,7-Dichloro-1H-indole-2-carbonyl)-6,6-dimethyl-N—((S)-1-oxo-3-((S)-2-oxopyrrolidin-3-yl)propan-2-yl)-3-azabicyclo[3.1.0]hexane-2-carboxamide] registered an IC50 of 22.2 nM.
`CCOc1cccc2[nH]c(C(=O)N3C[C@H]4[C@@H]([C@H]3C(=O)N[C@H](C=O)C[C@@H]3CCNC3=O)C4(C)C)cc12` [Compound 70, (1R,2S,5S)-3-(4-Ethoxy-1H-indole-2-carbonyl)-6,6-dimethyl-N—((S)-1-oxo-3-((S)-2-oxopyrrolidin-3-yl)propan-2-yl)-3-azabicyclo[3.1.0]hexane-2-carboxamide] showed a concentration for half-maximal inhibition (IC50) of 30.1 nM.
In turn, `O=C[C@H](C[C@@H]1CCNC1=O)NC(=O)[C@@H]1C[C@H](Oc2ccccc2)CN1C(=O)c1cc2ccccc2[nH]1` [Compound 134, (2S,4S)-1-(1H-Indole-2-carbonyl)-N—((S)-1-oxo-3-((S)-2-oxopyrrolidin-3-yl)propan-2-yl)-4-phenoxypyrrolidine-2-carboxamide] had an IC50 of 451 nM.
Same read-out and setting: in the case of `CC1(C)[C@@H]2[C@@H](C(=O)N[C@H](C=O)C[C@@H]3CCNC3=O)N(C(=O)c3cc4c(F)c(Cl)ccc4[nH]3)C[C@@H]21` [Compound 117, (1R,2S,5S)-3-(5-Chloro-4-fluoro-1H-indole-2-carbonyl)-6,6-dimethyl-N—((S)-1-oxo-3-((S)-2-oxopyrrolidin-3-yl)propan-2-yl)-3-azabicyclo[3.1.0]hexane-2-carboxamide] it was 126 nM; in that of `CC1(C)[C@@H]2[C@@H](C(=O)N[C@@H](C[C@@H]3CCNC3=O)C(=O)C(=O)NC3CC3)N(C(=O)C3(c4ccccc4)CCCC3)C[C@@H]21` [Compound 99, (1R,2S,5S)—N—((S)-4-(Cyclopropylamino)-3,4-dioxo-1-((S)-2-oxopyrrolidin-3-yl)butan-2-yl)-6,6-dimethyl-3-(1-phenylcyclopentanecarbonyl)-3-azabicyclo[3.1.0]hexane-2-carboxamide], 51.4 nM.
`CC1(C)[C@@H]2[C@@H](C(=O)N[C@H](C=O)C[C@@H]3CCNC3=O)N(C(=O)c3cc4ccc(Cl)cc4[nH]3)C[C@@H]21` [Compound 42, (1R,2S,5S)-3-(6-Chloro-1H-indole-2-carbonyl)-6,6-dimethyl-N—((S)-1-oxo-3-((S)-2-oxopyrrolidin-3-yl)propan-2-yl)-3-azabicyclo[3.1.0]hexane-2-carboxamide] came in with a half-maximal inhibitory concentration (IC50) of 22.1 nM.
`O=C[C@H](C[C@@H]1CCNC1=O)NC(=O)[C@@H]1CC2(CC2)CN1C(=O)c1cc2cccc(F)c2[nH]1` [Compound 87, (S)-5-(7-Fluoro-1H-indole-2-carbonyl)-N—((S)-1-oxo-3-((S)-2-oxopyrrolidin-3-yl)propan-2-yl)-5-azaspiro[2.4]heptane-6-carboxamide]: the IC50 was 40.1 nM.
Still for that read-out and setting: in the case of `COc1cc2[nH]c(C(=O)N3C[C@H]4[C@@H]([C@H]3C(=O)N[C@H](C=O)C[C@@H]3CCNC3=O)C4(C)C)cc2cc1F` [Compound 101, (1R,2S,5S)-3-(5-Fluoro-6-methoxy-1H-indole-2-carbonyl)-6,6-dimethyl-N—((S)-1-oxo-3-((S)-2-oxopyrrolidin-3-yl)propan-2-yl)-3-azabicyclo[3.1.0]hexane-2-carboxamide] it was 56.3 nM; in that of `CC1(C)[C@@H]2[C@@H](C(=O)N[C@H](C=O)C[C@@H]3CCNC3=O)N(C(=O)c3cc4c(C5CC5)cccc4[nH]3)C[C@@H]21` [Compound 41, (1R,2S,5S)-3-(4-Cyclopropyl-1H-indole-2-carbonyl)-6,6-dimethyl-N—((S)-1-oxo-3-((S)-2-oxopyrrolidin-3-yl)propan-2-yl)-3-azabicyclo[3.1.0]hexane-2-carboxamide], 21.8 nM.
The molecule `CC1CCC(CC(=O)N2C[C@H]3[C@@H]([C@H]2C(=O)N[C@@H](C[C@@H]2CCNC2=O)C(=O)C(=O)NC2CC2)C3(C)C)CC1` (stereo partly drawn) [Compound 105, (1R,2S,5S)—N—((S)-4-(Cyclopropylamino)-3,4-dioxo-1-((S)-2-oxopyrrolidin-3-yl)butan-2-yl)-6,6-dimethyl-3-(2-(4-methylcyclohexyl)acetyl)-3-azabicyclo[3.1.0]hexane-2-carboxamide] returned a half-inhibitory concentration (IC50) of 73.2 nM.
`N#Cc1cccc2cc(C(=O)N3CC4(CC4)C[C@H]3C(=O)N[C@H](C=O)C[C@@H]3CCNC3=O)[nH]c12` [Compound 46, (S)-5-(7-cyano-1H-indole-2-carbonyl)-N—((S)-1-oxo-3-((S)-2-oxopyrrolidin-3-yl)propan-2-yl)-5-azaspiro[2.4]heptane-6-carboxamide] yielded an IC50 of 22.5 nM.
As for `CC1(C)C[C@@H](C(=O)N[C@H](C=O)C[C@@H]2CCNC2=O)N(C(=O)c2cc3ccccc3[nH]2)C1` [Compound 57, (S)-1-(1H-Indole-2-carbonyl)-4,4-dimethyl-N—((S)-1-oxo-3-((S)-2-oxopyrrolidin-3-yl)propan-2-yl)pyrrolidine-2-carboxamid], for the setting “mean, 25 nM protein, 25 μM substrate, 30 min pre-incubation, 60 min at 30° C., read-out: Mpro_SARS-CoV-2 mean IC50”, the concentration for half-maximal inhibition (IC50) was determined as 25.8 nM.
In the case of `CC(C)(C)[C@H](NC(=O)c1cc2ccccc2[nH]1)C(=O)N1C[C@H]2[C@@H]([C@H]1C(=O)N[C@@H](C[C@@H]1CCNC1=O)C(=O)C(N)=O)C2(C)C` [Compound 116, N—((S)-1-((1R,2S,5S)-2-(((S)-4-amino-3,4-dioxo-1-((S)-2-oxopyrrolidin-3-yl)butan-2-yl)carbamoyl)-6,6-dimethyl-3-azabicyclo[3.1.0]hexan-3-yl)-3,3-dimethyl-1-oxobutan-2-yl)-1H-indole-2-carboxamide], the half-maximal inhibitory concentration (IC50) was determined as 118 nM.
With `CC1(C)[C@@H]2[C@@H](C(=O)N[C@H](C=O)C[C@@H]3CCNC3=O)N(C(=O)c3cc4ccc(C(F)(F)F)cc4[nH]3)C[C@@H]21` [Compound 96], the IC50 is 49.2 nM.
The molecule `O=C[C@H](C[C@@H]1CCNC1=O)NC(=O)[C@@H]1C[C@@H](Oc2ccccc2)CN1C(=O)c1cc2ccccc2[nH]1` [Compound 133, (2S,4R)-1-(1H-Indole-2-carbonyl)-N—((S)-1-oxo-3-((S)-2-oxopyrrolidin-3-yl)propan-2-yl)-4-phenoxypyrrolidine-2-carboxamide] yielded an IC50 of 443 nM.
